The target in the experiment is T1, plasma kallikrein (PKa) (Homo sapiens, UniProt P03952).
T1 construct: purchased R & D 2497-SE
Description: Inhibitory activity against plasma kallikrein in vitro (fluorescence intensity enzyme assay, Pro-Phe-Arg-AMC substrate). Format: biochemical. The following applies: Pro-Phe-Arg-AMC substrate. As to the method:
Test of the inhibitory activities of the compounds of the present invention against plasma kallikrein (PKa), KLK1 and FXIa in vitro.
The final concentrations of enzyme protein and Pro-Phe-Arg-AMC in the reaction mixture were 10 nM and 60 µM, respectively. The starting concentration of the positive reference substance Avoralstat was 100 nM, 3-fold dilution, 10 + 0 dose. 0.05 µL of compound in 100% DMSO was delivered to a 384-well plate by an acoustic liquid delivery technique (Echo665; nanoliter range). Compound duplex test. […] IC50 values and nonlinear regression curve fitting were obtained using GraphPad Prism software.

Where [1] appears, read: plasma kallikrein enzyme assay, read-out: PKa IC50.
Where [2] appears, read: PKa IC50, plasma kallikrein enzyme assay.

Values joined by “and” are separate entries in the source; they are usually repeats but may differ in a detail not shown here. Identical values can stand only once. Like-named read-outs stand apart in the source and are kept apart here.

T1 sequence (P03952 391-638 limits assumed): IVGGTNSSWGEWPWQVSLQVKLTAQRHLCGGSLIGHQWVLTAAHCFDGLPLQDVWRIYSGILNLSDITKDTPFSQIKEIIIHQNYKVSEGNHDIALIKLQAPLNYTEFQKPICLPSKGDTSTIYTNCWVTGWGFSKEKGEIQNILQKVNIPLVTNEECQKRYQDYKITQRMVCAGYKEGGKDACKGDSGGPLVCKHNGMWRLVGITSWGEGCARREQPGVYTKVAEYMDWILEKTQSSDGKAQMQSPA
T1 sequence (P03952 20-390 partner limits assumed): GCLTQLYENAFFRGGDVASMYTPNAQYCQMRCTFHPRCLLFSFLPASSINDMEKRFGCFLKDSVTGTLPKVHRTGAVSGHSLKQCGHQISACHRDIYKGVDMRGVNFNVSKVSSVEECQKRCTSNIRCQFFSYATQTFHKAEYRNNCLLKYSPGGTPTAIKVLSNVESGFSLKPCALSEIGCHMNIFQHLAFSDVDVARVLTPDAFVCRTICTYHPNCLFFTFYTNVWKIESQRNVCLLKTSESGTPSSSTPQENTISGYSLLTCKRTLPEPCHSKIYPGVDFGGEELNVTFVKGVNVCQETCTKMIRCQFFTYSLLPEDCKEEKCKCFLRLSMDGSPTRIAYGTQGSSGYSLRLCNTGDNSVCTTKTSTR

`COCc1cn(Cc2ccc(Cn3ccccc3=O)cc2)nc1C(=O)N[C@@H]1CCc2c1ncn2C` [Compound 59]: the half-maximal inhibitory concentration (IC50) (usually the midpoint of a concentration-inhibition curve) under setting [1] was over 100 nM. In the case of `COc1ccc(F)c(CNC(=O)c2cn(Cc3ccc(Cn4cc(F)ccc4=O)cc3)nc2COCC2(F)COC2)c1F` [Compound 234], the half-maximal inhibitory concentration (IC50) under setting [1] came out at 4.97 nM. The same measure, in the same setting: the same measure for `O=C(NCc1nccc(NCC2CC2)c1F)c1cn(Cc2ccc(Cn3ccccc3=O)cc2)nc1N1CC(F)(F)C1` [Compound 277]: over 1000 nM; for `COCc1nn(Cc2cn3cc(C4CC4)ccc3n2)cc1C(=O)NCc1c(C)cc(N)nc1C` [Compound 21]: 2.98 nM; for `Cc1cc(N)nc(C)c1CNC(=O)c1ncn(Cc2ccc(CN3CCCCC3=O)cc2)n1` [Compound 78]: 3.72 nM. Take `Nc1nc2ccc(CNC(=O)c3cnn(Cc4ccc(Cn5ccccc5=O)cc4)c3)cc2s1` [Compound 215]: under setting [1], the IC50 amounted to 797 nM.

Consider `C#Cc1nn(Cc2ccc(Cn3ccccc3=O)cc2)cc1C(=O)NCc1c(C)cc(N)nc1C` [Compound 81], for which the IC50 under setting [1] was 77 nM. Turning to `COCc1nn(Cc2ccc(Cn3ccccc3=O)cc2)cc1C(=O)NCc1ncc2c(n1)CNC2` [Compound 144], the midpoint of inhibition under setting [2], the IC50, lay at 25.9 nM. In the case of `CNc1ccnc(CNC(=O)c2cn(Cc3ccc(Cn4ccccc4=O)cc3)nc2C2COC2)c1F` [Compound 260, N-((3-fluoro-4-(methylamino)pyridin-2-yl)methyl)-3-(oxetan-3-yl)-1-(4-((2-oxopyridin-1(2H)-yl)methyl)benzyl)-1H-pyrazole-4-carboxamide], the IC50 under setting [1] is 7.78 nM. Still for that read-out and setting: the same measure for `COc1ccnc(CNC(=O)c2cn(Cc3ccc(Cn4ccccc4=O)cc3)nc2CN2C(=O)CC(C)(C)CC2=O)c1F` [Compound 305]: 12.4 nM; for `COc1ccnc(CNC(=O)c2cn(Cc3ccc(Cn4ccccc4=O)cc3)nc2CN2C[C@H](C)O[C@@H](C)C2)c1F` [Compound 309]: 273 nM. Same read-out and setting: for `COCC1(F)CN(c2nn(Cc3ccc(Cn4ccccc4=O)cc3)cc2C(=O)NCc2nccc(OC)c2F)C1` [Compound 223] the value was 11.9 nM; for `COc1ccc(F)c(CNC(=O)c2cn(Cc3ccc(Cn4ccccc4=O)cc3)nc2C2(OC)CCC2)c1F` [Compound 258], 63 nM.

In the case of `CC(C)Cc1ccc(Cn2cc(C(=O)NCc3ccc(C(=N)N)cc3)cn2)cc1` [Compound 312], the IC50 under setting [1] came to 2 nM. Turning to `Cc1cc(N)nc(C)c1CNC(=O)c1nnc(Cc2cn3cc(C4CC4)ccc3n2)o1` [Compound 17], the IC50 under setting [1] came to 36.2 nM. With `Nc1ncc2cc(CNC(=O)c3cnn(Cc4ccc(Cn5ccccc5=O)cc4)c3)ccn12` [Compound 187], under setting [1], the IC50 was 10.8 nM.

Regarding `O=C(NCc1nccc(NC2CCC2)c1F)c1cn(Cc2ccc(Cn3ccccc3=O)cc2)nc1N1CC(F)(F)C1` [Compound 278], the half-inhibitory concentration (IC50) under setting [1] is over 1000 nM. As to `Cc1cc(N)nc(C)c1CNC(=O)c1nc(Cc2ccc(Cn3ccccc3=O)cc2)ns1` [Compound 84], under setting [1], the half-maximal inhibitory concentration (IC50) was 64.7 nM. For the compound `N=C(N)c1ccc(CNC(=O)c2cnn(Cc3ccc(CC4CC4)cc3)c2)nc1` [Compound 243], under setting [1], the IC50 amounted to 14.3 nM.

As for `COc1ccnc(CNC(=O)c2cn(Cc3ccc(CN4C(=O)C5(CC5)c5ccc(F)cc54)cc3)nc2C(F)(F)F)c1F` [Compound 181], the IC50 under setting [1] is 613 nM.

Consider `COc1ccc(F)c(CNC(=O)c2cn(Cc3ccc(Cn4ccccc4=O)cc3)nc2COC2CCC2)c1F` [Compound 240], for which, under setting [1], the half-inhibitory concentration (IC50) was 12.6 nM.

Take `O=C(NCc1cc2ccncc2[nH]1)c1nc(Cc2ccc(Cn3ccccc3=O)cc2)ns1` [Compound 177]: the IC50 under setting [1] is 17.5 nM. Regarding `O=C(NCc1nccc(-n2nccn2)c1F)c1cn(Cc2ccc(Cn3ccccc3=O)cc2)nc1C1COC1` [Compound 352], under setting [1], the concentration for half-maximal inhibition (IC50) was determined as 90 nM. Regarding `COCc1nn(Cc2ccc(Cn3ccccc3=O)cc2)cc1C(=O)NCc1nc2c(s1)CNCC2` [Compound 152], under setting [1], the half-inhibitory concentration (IC50) came out at 594 nM.

For `COc1ccnc(CNC(=O)c2[nH]cc(Cc3ccc(Cn4ccccc4=O)cc3)c2C)c1F` [Compound 151], under setting [1], the half-inhibitory concentration (IC50) was 544 nM. Regarding `Cn1cnc2c1CC[C@H]2NC(=O)c1nn(Cc2ccc(Cn3ccccc3=O)cc2)cc1C(F)F` [Compound 58], the IC50 under setting [1] is 17.4 nM. For the compound `O=C(NCc1ccc2cnccc2c1)c1cnn(Cc2ccc(Cn3ccccc3=O)cc2)c1` [Compound 207], under setting [1], the half-maximal inhibitory concentration (IC50) is 165 nM. Regarding `COc1ccnc(CNC(=O)c2cn(Cc3ccc(Cn4ccccc4=O)cc3)nc2COC2CCOCC2)c1F` [Compound 295], the 50% inhibitory concentration (IC50) under setting [1] came to 16.3 nM. Still for that read-out and setting: for `COCCOCc1nn(Cc2ccc(Cn3ccccc3=O)cc2)cc1C(=O)NCc1nccc(OC)c1F` [Compound 162] the value was 8.68 nM; for `O=C(NCc1cc2cnccc2[nH]1)c1cn(Cc2ccc(Cn3ccccc3=O)cc2)nc1C(F)(F)F` [Compound 123], 29.5 nM; for `COc1ccnc(CNC(=O)c2cn(Cc3ccc(Cn4ccccc4=O)cc3)nc2N2CC[C@@H](OC)C2)c1F` [Compound 171], 86 nM. Same read-out and setting: for `O=C(NCc1nccc(N2CCC2)c1F)c1cn(Cc2ccc(Cn3ccccc3=O)cc2)nc1C1COC1` [Compound 346] the value was 5.64 nM; for `COc1ccnc(CNC(=O)c2cn(Cc3ccc(Cn4ccccc4=O)cc3)nc2C2CC2(F)F)c1F` (centres unmarked) [Compound 216], 2.64 nM.

In the case of `COc1ccc(F)c(CNC(=O)c2cn(Cc3ccc(Cn4ccccc4=O)cc3)nc2N2CC(C)(OC)C2)c1F` [Compound 291], the concentration for half-maximal inhibition (IC50) under setting [1] was 5.9 nM. Take `O=C(NCc1cc2cnccc2[nH]1)c1nc(Cc2ccc(Cn3ccccc3=O)cc2)ns1` [Compound 122]: the 50% inhibitory concentration (IC50) under setting [1] worked out at 124 nM.

As for `COc1ccc(F)c(CNC(=O)c2cn(Cc3ccc(Cn4cc(F)ccc4=O)cc3)nc2COCC2(C)COC2)c1F` [Compound 285], the half-maximal inhibitory concentration (IC50) under setting [1] worked out at 10.5 nM. With `COCc1nn(Cc2ccc(Cn3ccccc3=O)cc2)cc1C(=O)NCc1c(Cl)c2ccncc2n1C` [Compound 154], the IC50 under setting [1] was determined as 68.8 nM.

With `COc1ccc(C#N)c(CNC(=O)c2cn(Cc3ccc(Cn4ccccc4=O)cc3)nc2C(F)(F)F)c1C` [Compound 202], the half-inhibitory concentration (IC50) under setting [1] was over 1000 nM. `COc1ccc(F)c(CNC(=O)c2cn(Cc3ccc(Cn4cc(F)ccc4=O)cc3)nc2C2CC(F)(F)C2)c1F` [Compound 209, N-(2,6-difluoro-3-methoxybenzyl)-3-(3,3-difluorocyclobutyl)-1-(4-((5-fluoro-2-oxopyridin-1(2H)yl)methyl)benzyl)-1H-pyrazole-4-carboxamide]: the half-maximal inhibitory concentration (IC50) under setting [1] was 10.6 nM and > 100 nM. Turning to `COCc1nn(Cc2ccc(Cn3ccccc3=O)cc2)cc1C(=O)NCc1cc2ccncc2n1C` [Compound 135], the IC50 under setting [1] is 131 nM. On the same count and under the same terms, the same measure for `COCc1nn(Cc2ccc(Cn3ccccc3=O)cc2)cc1C(=O)NCc1cc2cnccc2n1C` [Compound 161]: 12.7 nM; for `COCc1nn(Cc2ccc(Oc3ccccc3)cc2)cc1C(=O)NCc1ccc2nccn2c1` [Compound 125]: 329 nM.

As for `Cc1nc(N)ncc1CNC(=O)c1ncn(Cc2ccc(Cn3cc(F)ccc3=O)cc2)n1` [Compound 31], the concentration for half-maximal inhibition (IC50) under setting [1] was over 1000 nM. Take `CCc1cc(N2CC3C(C2)C3(F)F)ccc1Cn1cc(C(=O)NCc2cc3cnccc3[nH]2)c(COC)n1` (centres unmarked) [Compound 195]: the IC50 under setting [1] came out at 192 nM. In the case of `Nc1cc2c(cn1)[C@H](NC(=O)c1ncn(Cc3cn4cc(C5CC5)ccc4n3)n1)CC2` [Compound 45], the IC50 under setting [1] was over 100 nM. In the case of `CNC(=N)c1ccc(CNC(=O)c2cnn(Cc3ccc(CC4CC4)cc3)c2)cc1` [Compound 271], the IC50 under setting [1] amounted to 855 nM. The same measure, in the same setting: the same measure for `O=C(NCc1nccc(C2CC2)c1F)c1cn(Cc2ccc(Cn3ccccc3=O)cc2)nc1C1CC(F)(F)C1` [Compound 340]: 48 nM; for `COc1ccnc(CNC(=O)c2cn(Cc3ccc(Cn4ccccc4=O)cc3)nc2C2CC(C)(OC)C2)c1F` (centres unmarked) [Compound 210]: 5.99 nM; for `COCc1nn(Cc2ccc(Cn3ccccc3=O)cc2)cc1C(=O)NCc1c(C#N)ccc(OC)c1C` [Compound 190]: over 1000 nM. Turning to `COCc1nn(Cc2ccc(Cn3c(=O)sc4cccc(F)c43)cc2)cc1C(=O)NCc1nccc(OC)c1F` [Compound 160], the half-maximal inhibitory concentration (IC50) under setting [1] came to 413 nM.

With `COCc1nn(Cc2ccc(Oc3ccccc3)cc2)cc1C(=O)NCc1ccn2ccnc2c1` [Compound 141], under setting [1], the concentration for half-maximal inhibition (IC50) was over 1000 nM. For the compound `COc1ccnc(CNC(=O)c2cn(Cc3ccc(Cn4ccccc4=O)cc3)nc2OCc2ccccn2)c1F` [Compound 229], the IC50 under setting [1] was 22.9 nM.

For `COCc1nn(Cc2ccc(CN3CC(F)(F)C3)cc2)cc1C(=O)NCc1nccc(OC)c1F` [Compound 103], under setting [1], the IC50 was over 100 nM. On to `COCc1nn(Cc2ccc(CN3C(=O)C4(CC4)c4ccc(F)cc43)cc2)cc1C(=O)NCc1nccc(OC)c1F` [Compound 138], for which, under setting [1], the IC50 was over 1000 nM.

As to `COc1ccnc(CNC(=O)c2cn(Cc3ccc(Cn4ccccc4=O)cc3)nc2CN2CC(C)(C)CC2=O)c1F` [Compound 174], the IC50 under setting [1] turned out to be 11.5 nM.

Consider `O=C(NCc1nccc(C2CC2)c1F)c1cn(Cc2ccc(CC3CC3)cc2)nc1C1COC1` [Compound 343], for which the IC50 under setting [1] is over 1000 nM. Regarding `COCc1nn(Cc2ccc(Cn3ccccc3=O)cc2)cc1C(=O)NCc1cn2ccc(Cl)c(F)c2n1` [Compound 120], the IC50 under setting [1] is over 1000 nM. Regarding `COCc1nn(Cc2ccc(-n3ccccc3=O)cc2)cc1C(=O)NCc1cn2c(n1)CNCC2` [Compound 145], under setting [1], the half-inhibitory concentration (IC50) was over 1000 nM. Consider `COc1ccnc(CNC(=O)c2cn(Cc3ccc(Cn4ccccc4=O)cc3)nc2C(F)(F)F)c1F` [Compound 90], for which, under setting [1], the IC50 was determined as 3.09 nM.

Take `Cn1cnc2c1CC[C@H]2NC(=O)c1ncn(Cc2ccc(CN3CCCCC3=O)cc2)n1` [Compound 79]: under setting [1], the IC50 was over 100 nM.

In turn, `O=C(NCc1ncc2c(n1)CNC2)c1cn(Cc2ccc(Cn3ccccc3=O)cc2)nc1C(F)(F)F` [Compound 156] had an IC50 under setting [2] of 669 nM. As to `COc1ccnc(CNC(=O)c2cn(Cc3ccc(Cn4ccccc4=O)cc3)nc2COC2COC2)c1F` [Compound 249], under setting [1], the concentration for half-maximal inhibition (IC50) amounted to 7.89 nM.
